Among the test systems are NCI/ADR-RES ovarian; SN12C renal; M14 melanoma; SW-620 colon; OVCAR-3 ovarian; HCT-116 colon; UO-31 renal; U251 CNS; OVCAR-8 ovarian; EKVX NSCLC; MOLT-4 leukemia; ACHN renal; 786-0 renal; T-47D breast; HCT-15 colon; SK-MEL-28 melanoma; UACC-257 melanoma.
Holding throughout (test): NCI tumour cell line growth inhibition, 48 h

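Tested at 5 concentrations; 48 h exposure; 96-well plates; endpoints linearly interpolated, else capped at highest concentration. The concentration for full growth arrest is given as TGI.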 Some results are limits rather than exact numbers.

As for `NC(=O)c1cc2ccc(O)cc2oc1=Nc1ccccc1`, the TGI in the assay with NCI/ADR-RES ovarian is above 100 µM; in the assay on SN12C renal, 66 µM; in the assay on M14 melanoma, above 100 µM; in the assay with SW-620 colon, above 100 µM; in the assay with OVCAR-3 ovarian it was above 100 µM; in the assay on HCT-116 colon it was above 100 µM. The TGI in the assay with UO-31 renal is above 100 µM; in the assay with U251 CNS, above 100 µM; in the assay on OVCAR-8 ovarian, above 100 µM; in the assay with EKVX NSCLC, above 100 µM; in the assay on MOLT-4 leukemia, 88.8 µM; in the assay on ACHN renal, above 100 µM. For the same compound, the TGI with 786-0 renal was above 100 µM; with T-47D breast it was 66.1 µM; in the assay on HCT-15 colon it was above 100 µM; with SK-MEL-28 melanoma it was above 100 µM; in the assay on UACC-257 melanoma, above 100 µM.

On to `O=C(CCc1ccc(O)c(O)c1)NCCc1cc(O)cc(O)c1`, for which the TGI with NCI/ADR-RES ovarian, with SN12C renal, with M14 melanoma, in the assay with SW-620 colon, with OVCAR-3 ovarian and with HCT-116 colon was above 100 µM throughout. The TGI with UO-31 renal, in the assay with U251 CNS, in the assay with OVCAR-8 ovarian, with EKVX NSCLC, in the assay on MOLT-4 leukemia and with ACHN renal was above 100 µM throughout. Besides, the TGI with 786-0 renal, in the assay with T-47D breast, in the assay with HCT-15 colon, with SK-MEL-28 melanoma and with UACC-257 melanoma was above 100 µM each time.

For `COc1cc(CO)c(CC(=O)NCCCc2ccccc2)cc1OC`, the TGI in the assay with NCI/ADR-RES ovarian, with SN12C renal, with M14 melanoma, in the assay on SW-620 colon, with OVCAR-3 ovarian and in the assay with HCT-116 colon was above 100 µM throughout. Moreover, the TGI with UO-31 renal, in the assay on U251 CNS, in the assay with OVCAR-8 ovarian, in the assay on EKVX NSCLC, in the assay with MOLT-4 leukemia and in the assay on ACHN renal was above 100 µM each time. Besides, the TGI in the assay on 786-0 renal, in the assay on T-47D breast, with HCT-15 colon, with SK-MEL-28 melanoma and in the assay with UACC-257 melanoma was above 100 µM each time.

For the compound `C[C@H](NC(=O)c1ccc(CNC(=O)/C=C/c2cccc(Oc3ccccc3)c2)cc1)c1ccccc1`, the TGI in the assay on NCI/ADR-RES ovarian, with SN12C renal, with M14 melanoma, in the assay with SW-620 colon, with OVCAR-3 ovarian and with HCT-116 colon was above 100 µM throughout. In addition, the TGI with UO-31 renal, in the assay on U251 CNS, with OVCAR-8 ovarian, with EKVX NSCLC, in the assay with MOLT-4 leukemia and in the assay with ACHN renal was above 100 µM in each case. The TGI with 786-0 renal, in the assay on T-47D breast, in the assay on HCT-15 colon, with SK-MEL-28 melanoma and in the assay with UACC-257 melanoma was above 100 µM throughout.

Regarding `Cc1cccc(CP(Cc2cccc(C)c2)CC2(Cp3c4ccccc4c4ccccc43)COC2)c1`, the TGI with NCI/ADR-RES ovarian is above 100 µM; in the assay with SN12C renal, above 31.6 µM; with M14 melanoma, above 100 µM; with SW-620 colon, above 100 µM; in the assay on OVCAR-3 ovarian, above 100 µM; in the assay with HCT-116 colon, above 100 µM. In addition, the TGI was above 100 µM in the assay with UO-31 renal; above 100 µM with U251 CNS; above 100 µM in the assay on OVCAR-8 ovarian; above 100 µM with EKVX NSCLC; 37.8 µM in the assay with MOLT-4 leukemia; above 100 µM in the assay with ACHN renal. Moreover, the TGI in the assay on 786-0 renal was above 31.6 µM; in the assay with T-47D breast, above 100 µM; in the assay with HCT-15 colon, above 100 µM; in the assay on SK-MEL-28 melanoma, above 100 µM; in the assay with UACC-257 melanoma, above 100 µM.

Take `CCCN(CCCc1ccccc1)CCc1ccc2[nH]c(=S)[nH]c2c1`: the TGI was above 100 µM in the assay on NCI/ADR-RES ovarian; above 100 µM in the assay with SN12C renal; 40 µM in the assay with M14 melanoma; above 100 µM in the assay on SW-620 colon; above 100 µM in the assay with OVCAR-3 ovarian; above 100 µM with HCT-116 colon. Moreover, the TGI is 51.4 µM in the assay with UO-31 renal; above 100 µM with U251 CNS; above 100 µM in the assay on OVCAR-8 ovarian; above 100 µM in the assay with EKVX NSCLC; 54 µM in the assay with MOLT-4 leukemia; above 100 µM with ACHN renal. For the same compound, the TGI in the assay with 786-0 renal was 25.4 µM; with T-47D breast, 43.2 µM; with HCT-15 colon, above 100 µM; in the assay with SK-MEL-28 melanoma, 51.5 µM; with UACC-257 melanoma, 44.3 µM.

As for `Brc1cc(CCOC2CCCCO2)c(-c2sccc2CCOC2CCCCO2)s1` (centres undefined), the TGI in the assay on NCI/ADR-RES ovarian, with SN12C renal, with M14 melanoma, in the assay with SW-620 colon, in the assay with OVCAR-3 ovarian and with HCT-116 colon was above 100 µM each time. Moreover, the TGI in the assay on UO-31 renal is above 42.1 µM; in the assay on U251 CNS it was above 100 µM; with OVCAR-8 ovarian it was above 100 µM; in the assay on EKVX NSCLC, above 100 µM; in the assay with MOLT-4 leukemia, above 61.3 µM; in the assay on ACHN renal it was above 100 µM. Besides, the TGI with 786-0 renal, in the assay with T-47D breast, in the assay with HCT-15 colon, in the assay on SK-MEL-28 melanoma and with UACC-257 melanoma was above 100 µM each time.
